Laboratory results: ChEMBL document CHEMBL5537158, “Polymyxins with Potent Antibacterial Activity against Colistin-Resistant Pathogens: Fine-Tuning Hydrophobicity with Unnatural Amino Acids” (J Med Chem, 2024)
Converted amounts (≈) assume the structure as drawn. Positions of bridges follow the written chain, without caps; N, C: chain ends. Non-standard residues stand in square brackets, D forms with d. Residues, ends and D or L forms follow the SMILES beside them. *: point of attachment. Phe(4-CF3) = N[C@@H](Cc1ccc(C(F)(F)F)cc1)C(=O)O; dPhe(4-CF3) = N[C@H](Cc1ccc(C(F)(F)F)cc1)C(=O)O; Phe(3-F) = N[C@@H](Cc1cccc(F)c1)C(=O)O; Phe(4-F) = N[C@@H](Cc1ccc(F)cc1)C(=O)O; d(hhPhe) = N[C@H](CCCc1ccccc1)C(=O)O; hhPhe = N[C@@H](CCCc1ccccc1)C(=O)O; Octanoyl = CCCCCCCC(=O)*; Dab = NCC[C@H](N)C(=O)O

Key:
Escherichia coli [1] = assay: Antimicrobial activity against […] Escherichia coli harboring mcr-1 assessed as bacterial growth inhibition incubated for 20 hrs by broth microdilution method; assay type: functional
Escherichia coli [2] = assay: Antibacterial activity against Escherichia coli ATCC 25922 assessed as bacterial growth inhibition incubated for 20 hrs by broth microdilution method; assay type: functional
Klebsiella pneumoniae = assay: Antimicrobial activity against Klebsiella pneumoniae ATCC 13883 assessed as bacterial growth inhibition incubated for 20 hrs by broth microdilution method; assay type: functional
Pseudomonas aeruginosa [3] = assay: Antimicrobial activity against Pseudomonas aeruginosa PAO1 assessed as bacterial growth inhibition incubated for 20 hrs by broth microdilution method; assay type: functional
[4] = Hemolytic activity in human RBC at 400 ug/ml after 1 hr; assay type: toxicity, cell-based, Erythrocyte; details: red blood cells (erythrocytes), at 400 µg/mL, read-out: Activity
Pseudomonas aeruginosa [5] = assay: Antimicrobial activity against colistin resistant Pseudomonas aeruginosa 7197/19 assessed as bacterial growth inhibition incubated for 20 hrs by broth microdilution method; assay type: functional
Acinetobacter baumannii [6] = assay: Antimicrobial activity against Acinetobacter baumannii ATCC 19606 assessed as bacterial growth inhibition incubated for 20 hrs by broth microdilution method; assay type: functional
Acinetobacter baumannii [7] = assay: Antimicrobial activity against colistin resistant Acinetobacter baumannii ATCC 3658/17 assessed as bacterial growth inhibition incubated for 20 hrs by broth microdilution method; assay type: functional

Row | Structure (SMILES) | MIC (Escherichia coli [1]) [µg/mL] | MIC (Escherichia coli [2]) [µg/mL] | MIC (Klebsiella pneumoniae) [µg/mL] | MIC (Pseudomonas aeruginosa [3]) [µg/mL] | hemolysis at 1 h, 400 ug/ml [4] [%] | MIC (Pseudomonas aeruginosa [5]) [µg/mL] | MIC (Acinetobacter baumannii [6]) [µg/mL] | MIC (Acinetobacter baumannii [7]) [µg/mL]
1 | CC(=O)N[C@H](Cc1c(F)c(F)c(F)c(F)c1F)C(=O)N[C@@H](CCN)C(=O)N[C@H](C(=O)N[C@@H](CCN)C(=O)N[C@H]1CCNC(=O)[C@H]([C@@H](C)O)NC(=O)[C@H](CCN)NC(=O)[C@H](CCN)NC(=O)[C@H](CC(C)C)NC(=O)[C@@H](Cc2ccccc2)NC(=O)[C@@H](CCN)NC1=O)[C@H](C)O | 8 (≈ 5.96 µM) | < 0.125 | 8 (≈ 5.96 µM) | 0.25 (≈ 0.186 µM) | < 10 | – | – | –
2 | CCCCCCCC(=O)N[C@@H](CCN)C(=O)N[C@H](C(=O)N[C@@H](CCN)C(=O)N[C@H]1CCNC(=O)[C@H]([C@@H](C)O)NC(=O)[C@H](CCN)NC(=O)[C@H](CCN)NC(=O)[C@H](Cc2cccc(F)c2)NC(=O)[C@@H](CC(C)C)NC(=O)[C@H](CCN)NC1=O)[C@@H](C)O (Octanoyl-[Dab]T[Dab][Dab][Dab][dL][Phe(3-F)][Dab][Dab]T; lactam 4-C) | 4 (≈ 3.31 µM) | 0.25 (≈ 0.207 µM) | – | – | – | 1 (≈ 0.828 µM) | 0.25 (≈ 0.207 µM) | –
3 | CC(=O)N[C@H](Cc1cccc(F)c1)C(=O)N[C@@H](CCN)C(=O)N[C@H](C(=O)N[C@@H](CCN)C(=O)N[C@H]1CCNC(=O)[C@H]([C@@H](C)O)NC(=O)[C@H](CCN)NC(=O)[C@H](CCN)NC(=O)[C@H](CC(C)C)NC(=O)[C@@H](Cc2ccccc2)NC(=O)[C@@H](CCN)NC1=O)[C@H](C)O | – | 0.25 (≈ 0.197 µM) | – | 0.25 (≈ 0.197 µM) | < 10 | – | 1 (≈ 0.787 µM) | 16 (≈ 12.6 µM)
4 | CCCCCCCC(=O)N[C@@H](CCN)C(=O)N[C@H](C(=O)N[C@@H](CCN)C(=O)N[C@H]1CCNC(=O)[C@H]([C@@H](C)O)NC(=O)[C@H](CCN)NC(=O)[C@H](CCN)NC(=O)[C@H](CC(C)C)NC(=O)[C@@H](Cc2ccc(C(F)(F)F)cc2)NC(=O)[C@H](CCN)NC1=O)[C@@H](C)O (Octanoyl-[Dab]T[Dab][Dab][Dab][dPhe(4-CF3)]L[Dab][Dab]T; lactam 4-C) | 1 (≈ 0.795 µM) | 0.25 (≈ 0.199 µM) | – | – | – | 0.25 (≈ 0.199 µM) | 0.25 (≈ 0.199 µM) | 0.5 (≈ 0.398 µM)
5 | CCCCCCCC(=O)N[C@@H](CCN)C(=O)N[C@H](C(=O)N[C@@H](CCN)C(=O)N[C@H]1CCNC(=O)[C@H]([C@@H](C)O)NC(=O)[C@H](CCN)NC(=O)[C@H](CCN)NC(=O)[C@H](Cc2ccc(C(F)(F)F)cc2)NC(=O)[C@@H](CC(C)C)NC(=O)[C@H](CCN)NC1=O)[C@@H](C)O (Octanoyl-[Dab]T[Dab][Dab][Dab][dL][Phe(4-CF3)][Dab][Dab]T; lactam 4-C) | – | – | – | 0.25 (≈ 0.199 µM) | – | – | < 0.125 | 1 (≈ 0.795 µM)
6 | CCCCCCCC(=O)N[C@@H](CCN)C(=O)N[C@H](C(=O)N[C@@H](CCN)C(=O)N[C@H]1CCNC(=O)[C@H]([C@@H](C)O)NC(=O)[C@H](CCN)NC(=O)[C@H](CCN)NC(=O)[C@H](CC(C)C)NC(=O)[C@@H](CCCc2ccccc2)NC(=O)[C@H](CCN)NC1=O)[C@@H](C)O (Octanoyl-[Dab]T[Dab][Dab][Dab][d(hhPhe)]L[Dab][Dab]T; lactam 4-C) | – | < 0.125 | – | – | – | 0.5 (≈ 0.411 µM) | < 0.125 | –
7 | CC(=O)N[C@H](Cc1ccc(C(F)(F)F)cc1)C(=O)N[C@@H](CCN)C(=O)N[C@H](C(=O)N[C@@H](CCN)C(=O)N[C@H]1CCNC(=O)[C@H]([C@@H](C)O)NC(=O)[C@H](CCN)NC(=O)[C@H](CCN)NC(=O)[C@H](CC(C)C)NC(=O)[C@@H](Cc2ccccc2)NC(=O)[C@@H](CCN)NC1=O)[C@H](C)O | 4 (≈ 3.03 µM) | – | 8 (≈ 6.06 µM) | 0.25 (≈ 0.189 µM) | < 10 | 32 (≈ 24.2 µM) | 0.5 (≈ 0.379 µM) | –
8 | CCCCCCCC(=O)N[C@@H](CCN)C(=O)N[C@H](C(=O)N[C@@H](CCN)C(=O)N[C@H]1CCNC(=O)[C@H]([C@@H](C)O)NC(=O)[C@H](CCN)NC(=O)[C@H](CCN)NC(=O)[C@H](CCCc2ccccc2)NC(=O)[C@@H](CC(C)C)NC(=O)[C@H](CCN)NC1=O)[C@@H](C)O (Octanoyl-[Dab]T[Dab][Dab][Dab][dL][hhPhe][Dab][Dab]T; lactam 4-C) | 1 (≈ 0.821 µM) | 0.5 (≈ 0.411 µM) | – | 0.5 (≈ 0.411 µM) | – | 0.5 (≈ 0.411 µM) | < 0.125 | 0.5 (≈ 0.411 µM)
9 | CCCCCCCC(=O)N[C@@H](CCN)C(=O)N[C@H](C(=O)N[C@@H](CCN)C(=O)N[C@H]1CCNC(=O)[C@H]([C@@H](C)O)NC(=O)[C@H](CCN)NC(=O)[C@H](CCN)NC(=O)[C@H](Cc2ccc(F)cc2)NC(=O)[C@@H](CC(C)C)NC(=O)[C@H](CCN)NC1=O)[C@@H](C)O (Octanoyl-[Dab]T[Dab][Dab][Dab][dL][Phe(4-F)][Dab][Dab]T; lactam 4-C) | 2 (≈ 1.66 µM) | – | – | 0.125 (≈ 0.104 µM) | – | 32 (≈ 26.5 µM) | 0.25 (≈ 0.207 µM) | 16 (≈ 13.3 µM)
10 | CCCCCCCC(=O)N[C@@H](CCN)C(=O)N[C@H](C(=O)N[C@@H](CCN)C(=O)N[C@H]1CCNC(=O)[C@H]([C@@H](C)O)NC(=O)[C@H](CCN)NC(=O)[C@H](CCN)NC(=O)[C@H](Cc2ccccc2)NC(=O)[C@@H](CCCc2ccccc2)NC(=O)[C@H](CCN)NC1=O)[C@@H](C)O (Octanoyl-[Dab]T[Dab][Dab][Dab][d(hhPhe)]F[Dab][Dab]T; lactam 4-C) | 2 (≈ 1.6 µM) | 0.25 (≈ 0.2 µM) | – | – | – | 0.5 (≈ 0.4 µM) | – | 1 (≈ 0.799 µM)
